# Test results: PMC6369734, “Spy vs. spy: selecting the best reporter for ^19F NMR competition experiments” (Chemical Communications (Cambridge, England), 2019)
# Target: T1, VHL (VBC complex) (Homo sapiens, UniProt P40337)
# T1 construct: equimolar complex of pVHL54-213, eloB1-104 and; made in house; host or cells: E. coli
# Test: 19F CPMG NMR transverse relaxation rate (R2) and R2 contrast (C2) of spy molecule with and without protein
# Assay type: binding
# From the text: Due to the large CSA of fluorine and the significant differences in the fluorine isotropic chemical shift (δF) between the free and bound states, the transverse relaxation rate (R2) is a well-established sensitive parameter to detect ligand binding.[4] Therefore, fluorine NMR experiments including a Carr–Purcell–Meiboom–Gill (CPMG) spin-echo filter[10] before acquisition were employed to monitor ligand binding to VHL by measuring peak intensity, as changes in other NMR parameters, such as chemical shift and peak width, were not as significant. The R2 values of the CF3 peak of each compound in the absence and in the presence of protein were determined by performing multiple ^19F CPMG experiments varying the CPMG filter (Fig. 2a). To quantify the shift in R2 upon binding, the R2 contrast (C2)[11] was determined. Ideally, a good spy molecule should have a large increase in R2 (fast relaxation) when protein is present, resulting in a large assay window for the competition experiments (Fig. 2b).
# 5. Measurement of the transverse relaxation rates by 19F CPMG NMR
# All the NMR experiments were performed in a 500 MHz Bruker AVANCE N MR spectrometer equipped with a CPQCI -F cryoprobe. To measure the transverse relaxation rates (R 2), a solution of each spy molecule at 100 μM was prepared in 50 mM potassium phosphate monobasic (KH2PO4), pH 7.5, 100 mM NaCl, 1 mM TCEP, 2% (v/v) DMSO, 20% D2O and 10 µM trifluoroacetic acid (TFA). For each solution, 19F CPMG experiments […]
# Due to the fast relaxation of molecules 21 and 22, these experiments were repeated with shorter CPMG filters (50, 100, 150, 200, 300, 400, 700 and 1000 ms). The fluorine peaks were integrated and plotted against the resp ective CPMG filters. The R 2 relaxation rates were obtained from fitting the data as a n exponential decay (GraphPad Prism 6) according to the equation below: [7]
# Where I(t) is the 19F signal intensity or integral, t is the total CPMG filter in seconds, I(0) is the signal intensity when t = 0. To obtain the R2 upon addition of prot ein, all the experiments above were repeated in presence of VBC at 1 µM. Experiments were performed as triplicates and the R 2 contrasts (C2) were obtained according to the equation below: [8]
# Where R2Free is the R2 obtained for the spy molecule free in solution and R2Observed is the R2 obtained with the spy molecule in presence of VBC. The raw data, fitting, R2 and C2 values for each spy molecule can be found in section 8.1. For the R2 measurements using molecule 19 at varied concentrations of spy molecule and protein, see section 8.2 . For the R2 measurements using spy molecules 6 and 11 (used to generate figures S 2, S3 and S4) see
# [1] = Spy molecule 100 μM + VBC 1 μM, supplement 8.1
# [2] = Spy molecule 100 μM, no protein
# [3] = Spy molecule 19 at 10 µM, VBC 0.125 μM
# [4] = Spy molecule 19 at 10 µM, VBC 0.250 μM
# [5] = Spy molecule 19 at 10 µM, VBC 0.500 μM
# [6] = Spy molecule 19 at 10 µM, VBC 1.000 μM
# [7] = Spy molecule 19 at 25 µM, VBC 0.125 μM
# [8] = Spy molecule 19 at 25 µM, VBC 0.250 μM
# [9] = Spy molecule 19 at 25 µM, VBC 0.500 μM
# [10] = Spy molecule 19 at 25 µM, VBC 1.000 μM
# [11] = Spy molecule 19 at 50 µM, VBC 0.125 μM
# [12] = Spy molecule 19 at 50 µM, VBC 0.250 μM
# [13] = Spy molecule 19 at 50 µM, VBC 0.500 μM
# [14] = Spy molecule 19 at 50 µM, VBC 1.000 μM
# [15] = spy concentration not given, VBC 0.125 μM
# [16] = spy concentration not given, VBC 0.250 μM
# [17] = spy concentration not given, VBC 0.500 μM
# [18] = spy concentration not given, VBC 1.000 μM
# T1 sequence (P40337 54-213): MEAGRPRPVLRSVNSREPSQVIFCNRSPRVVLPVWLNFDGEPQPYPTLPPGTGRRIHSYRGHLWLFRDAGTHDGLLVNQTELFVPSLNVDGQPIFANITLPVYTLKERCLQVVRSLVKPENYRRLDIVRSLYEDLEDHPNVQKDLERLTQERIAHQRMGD
# T1 sequence (Q15370 1-104 partner limits assumed): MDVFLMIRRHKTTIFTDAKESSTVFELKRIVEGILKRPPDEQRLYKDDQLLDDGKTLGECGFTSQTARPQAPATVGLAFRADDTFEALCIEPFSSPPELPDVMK
# T1 sequence (Q15369 17-112 partner limits assumed): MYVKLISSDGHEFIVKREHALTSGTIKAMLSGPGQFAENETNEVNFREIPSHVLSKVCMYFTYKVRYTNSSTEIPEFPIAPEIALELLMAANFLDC
smiles,measurement,setting,value
CC(C)(C)CC(=O)N1C[C@H](O)C[C@H]1C(=O)NCc1ccc(Br)c(C(F)(F)F)c1 [Compound 3],R2,Spy molecule 100 μM + VBC 1 μM,1.847 ± 0.033 s⁻¹
same,R2 contrast – C2,[1],28.2 ± 2.3%
same,R2,[2],1.326 ± 0.025 s⁻¹
CC(=O)N1C[C@H](O)C[C@H]1C(=O)NCc1ccc(Br)cc1C(F)(F)F [Compound 10],R2,Spy molecule 100 μM + VBC 1 μM,2.596 ± 0.046 s⁻¹
same,R2 contrast – C2,[1],51.9 ± 2.1%
same,R2,[2],1.249 ± 0.018 s⁻¹
CC(=O)NC(C(=O)N1CC(O)CC1C(=O)NCc1ccc(Br)cc1C(F)(F)F)C(C)(C)C (stereo not drawn) [Compound 12],R2,Spy molecule 100 μM + VBC 1 μM,1.637 ± 0.028 s⁻¹
same,R2 contrast – C2,[1],7.6 ± 2.4%
same,R2,[2],1.512 ± 0.029 s⁻¹
O=C(NCc1ccc(Br)cc1)C1CC(O)CN1C(=O)CC(F)(F)F (stereo not drawn) [Compound 19],R2,Spy molecule 100 μM + VBC 1 μM,5.096 ± 0.186 s⁻¹
same,R2 contrast – C2,[1],70.1 ± 4.5%
same,R2,[2],1.526 ± 0.041 s⁻¹
same,R2,"Spy molecule 19 at 10 µM, VBC 0.000 μM",1.464 ± 0.096 s⁻¹
same,R2,[3],2.346 ± 0.193 s⁻¹
same,R2 contrast – C2,[3],35.0 ± 8.9%
same,R2,[4],2.807 ± 0.131 s⁻¹
same,R2 contrast – C2,[4],45.6 ± 5.3%
same,R2,[5],4.288 ± 0.304 s⁻¹
same,R2 contrast – C2,[5],64.4 ± 8.5%
same,R2,[6],7.974 ± 0.727 s⁻¹
same,R2 contrast – C2,[6],80.9 ± 11.7%
same,R2,"Spy molecule 19 at 25 µM, VBC 0.000 μM",1.582 ± 0.049 s⁻¹
same,R2,[7],2.107 ± 0.095 s⁻¹
same,R2 contrast – C2,[7],27.6 ± 5.1%
same,R2,[8],2.811 ± 0.156 s⁻¹
same,R2 contrast – C2,[8],45.7 ± 6.3%
same,R2,[9],4.008 ± 0.200 s⁻¹
same,R2 contrast – C2,[9],61.9 ± 5.9%
same,R2,[10],6.934 ± 0.348 s⁻¹
same,R2 contrast – C2,[10],78.0 ± 6.4%
same,R2,"Spy molecule 19 at 50 µM, VBC 0.000 μM",1.475 ± 0.059 s⁻¹
same,R2,[11],1.969 ± 0.071 s⁻¹
same,R2 contrast – C2,[11],22.5 ± 4.2%
same,R2,[12],2.316 ± 0.168 s⁻¹
same,R2 contrast – C2,[12],34.1 ± 7.9%
same,R2,[13],3.857 ± 0.121 s⁻¹
same,R2 contrast – C2,[13],60.4 ± 3.8%
same,R2,[14],6.424 ± 0.262 s⁻¹
same,R2 contrast – C2,[14],76.2 ± 5.2%
same,R2,"spy concentration not given, VBC 0.000 μM",1.392 ± 0.101 s⁻¹
same,R2,[15],2.337 ± 0.335 s⁻¹
same,R2 contrast – C2,[15],34.7 ± 15.3%
same,R2,[16],3.678 ± 0.489 s⁻¹
same,R2 contrast – C2,[16],58.5 ± 15.5%
same,R2,[17],4.255 ± 0.566 s⁻¹
same,R2 contrast – C2,[17],64.1 ± 15.8%
same,R2,[18],7.063 ± 1.128 s⁻¹
same,R2 contrast – C2,[18],78.4 ± 20.3%
